Experimental data published in US6555702B2, “Protein kinase inhibitor” (Calyx Therapeutics, Inc., priority 1997, dated 2003).
Entries after “also recorded” stand apart in the source; their conditions may differ.

Experiments:
[1] = tested on: IL 12 secretion by splenic macrophages; experiment: IL 12 secretion by LPS-stimulated splenic macrophages; assay type: cell-based; conditions: mouse splenic macrophages, 5 ug/ml LPS, varying doses, 72 hr; FIG. 1A
Method: The effects of these three tyrphostins on the secretion of pro-inflammatory cytokines from macrophages were compared. Mouse splenic macrophages were stimulated with 5 ugh/ml lipopolysaccharide (LPS) and treated with varying doses of tyrphostins. The cells were cultured for 72 hr and the amount of IL 12 and nitric oxide was measured. […] Similar results were obtained with respect to nitric oxide levels, with tyrphostin A1 (FIG. 1B) showing good results.

[2] = tested on: mitogen stimulated splenic T cells; experiment: T cell proliferation induced by IL 2; assay type: cell-based, mouse; conditions: stimulated with 1 U/ml IL 2
[3] = tested on: leukemic cells; conditions: acute lymphoblastic leukemia; background statement; cited from earlier work
[4] = tested on: mitogen stimulated splenic T cells; experiment: T cell proliferation induced by IL 12; assay type: cell-based, mouse; conditions: stimulated with 10 U/ml IL 12
[5] = Solubility (Table A); assay type: physicochemical; conditions: solvents in which the compound is soluble
[6] = tested on: septic shock; conditions: background statement; cited from earlier work
[7] = tested on: NOD mice; experiment: Hypoglycemic effect in non-obese diabetic (NOD) mice; assay type: in vivo, mouse; conditions: daily oral administration, treatment mode, vs vehicle; FIG. 5
Method: The hypoglycemic effect of Compound 2 (water-soluble analog of A1) was evaluated in the treatment mode in non-obese diabetic (NOD) mice.

| SOLUBILITY [5] | SMILES | inhibition of IL 12 secretion [1] | inhibition of T cell proliferation [2] | inhibition of T cell proliferation [4] | other results |
| --- | --- | --- | --- | --- | --- |
|  | N#C/C(=C\c1ccc(O)c(O)c1)C(=O)NCc1ccccc1 [Tyrphostin B42] | inhibited IL 12 production | inhibited T cell proliferation | inhibited T cell proliferation | prevention of growth of leukemic cells [3]: effective in preventing the growth of leukemic cells |
| Water | N#CC(C#N)=Cc1ccc(OCC(=O)[O-])cc1.[Na+] [Compound 5] |  |  |  |  |
| Chloroform Ethanol (warm) | CCOC(=O)COc1ccc(C=C(C#N)C#N)cc1 [Compound 6] |  |  |  |  |
|  | N#CC(C#N)=Cc1ccc([N+](=O)[O-])c(O)c1 [Tyrphostin A10] | inhibited IL 12 production | did not show any significant inhibition | did not show any significant inhibition | protection in septic shock [6]: protective in septic shock |
| Water | N#CC(C#N)=Cc1ccc(C(=O)[O-])cc1.[Na+] [Compound 2, Sodium 1-cyano-3-(4-carboxy-phenyl)-acrylonitrile] |  |  |  | effect on blood glucose level [7]: significant effect on blood glucose level; also recorded: lowering blood glucose level |
| Ethanol Acetone | N#CC(C#N)=Cc1ccc(O)cc1 [Compound 7] |  |  |  |  |
